Columns and labels:
Test in all cases: Film inoculated on Tryptic Soy Agar plate: growth, zone of inhibition, scraping/streak
Type in all cases: cell-based
Settings in all cases: after 4 days
[1] = system: Candida albicans ATCC 10231
Description: (§1) Each film sample was individually placed on the surface of a Tryptic Soy Agar (TSA) plate in an aseptic manner. Each film was individually inoculated with 1 mL of one of the three (3) challenge organisms shown below. For each challenge organism, one “Sample Film” and one “Control Film” were inoculated. Due to the anticipated slow absorption of the challenge inoculum by the test samples, the inoculum was dispensed onto each film sample very slowly. After inoculation, each sample was carefully moved to incubation at the temperature range appropriate for the inoculated challenge organism and incubated for four (4) days. Each day of incubation, all plates were removed from incubation for visual and stereoscopic evaluation. Upon evaluation, the presence or absence of growth on the plate and/or on the sample was noted. In addition, the sample was evaluated for the presence or absence of a zone of inhibition around the sample. The presence or absence of a zone was reported as “Z” for Zone (size in mm) or “NZ” for no zone present. [table] Additional Test Information: • G=Growth • NG=No Growth • Z=Zone (in mm) • NZ=No Zone • Additional Information/Observations: At the conclusion of the testing period, all test samples were individually removed from the agar surface and gently shaken to remove any excess moisture remaining on the surface of the sample. The samples were then individually examined under the stereoscope by a laboratory technician. […] Following the documentation of the observations above, each sample was scraped with an inoculating loop on the inoculated, top side of each sample to determine whether macroscopic growth could be visually observed. […] The following is a summary of findings from this portion of the test: […]

[2] = system: Escherichia coli ATCC 8739
Description: as §1

[3] = system: Staphylococcus aureus ATCC 6538
Description: as §1

Clc1cccc(Cl)c1N=C1NCCN1 [clonidine, 2,6-dichloro-N-2-imidazolidinyldenebenzenamine]
inhibited growth: growth of fungus (C. albicans) [1] | growth of gram negative bacteria (E. coli) [2] | growth of gram positive bacteria (S. aureus) [3]

From US20110097380A1, “CLONIDINE FORMULATIONS HAVING ANTIMICROBIAL PROPERTIES” (Warsaw Orthopedic, Inc., priority 2009, published 2011)
